Laboratory results published in PubChem BioAssay (NCI).
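Briefly, cells in 96-well plates were exposed to five compound concentrations for 48 h, and endpoints were estimated by linear interpolation. Definition used: TGI = concentration required for complete inhibition of growth.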

Experiments:
Experiment in all cases: NCI-60 cell line screen, 48 h
ACHN renal = system: ACHN renal
BT-549 breast = system: BT-549 breast
HL-60(TB) leukemia = system: HL-60(TB) leukemia
HT29 colon = system: HT29 colon
MCF7 breast = system: MCF7 breast
OVCAR-3 ovarian = system: OVCAR-3 ovarian
SK-MEL-2 melanoma = system: SK-MEL-2 melanoma
SK-MEL-5 melanoma = system: SK-MEL-5 melanoma
SN12C renal = system: SN12C renal
SR leukemia = system: SR leukemia

Row | SMILES | TGI (ACHN renal) | TGI (BT-549 breast) | TGI (HL-60(TB) leukemia) | TGI (HT29 colon) | TGI (MCF7 breast) | TGI (OVCAR-3 ovarian) | TGI (SK-MEL-2 melanoma) | TGI (SK-MEL-5 melanoma) | TGI (SN12C renal) | TGI (SR leukemia)
1 | Cc1nc2ccccc2n1CCc1nc2ccccc2[nH]1 | > 100 µM | > 100 µM | > 100 µM | > 100 µM | > 100 µM | > 100 µM | > 100 µM | > 100 µM | > 100 µM | > 100 µM
2 | O=C(O)C1(Cc2ccc3c(c2)CCC3)Cc2cc3c(cc2C1)CCC3 | > 100 µM | > 100 µM | > 100 µM | > 100 µM | > 100 µM | > 100 µM | > 100 µM | > 100 µM | – | > 100 µM
3 | C=C1C[C@]23CC[C@@H]4C(CO)(CO)CC(=O)C[C@]4(C)[C@@H]2C(O)C[C@H]1C3 (stereo not given in full) | > 100 µM | > 100 µM | > 100 µM | > 100 µM | > 100 µM | > 100 µM | > 100 µM | – | > 100 µM | > 100 µM
4 | Cc1cccc(/C=N/NC(=S)NC(C)(C)C)n1 | > 100 µM | > 100 µM | > 100 µM | > 100 µM | > 100 µM | > 100 µM | > 100 µM | > 100 µM | > 100 µM | > 100 µM
5 | CC[N+]1(C)CCC(O)(/C=C/c2ccc(Cl)c(Cl)c2)C(C(=O)/C=C/c2ccc(Cl)c(Cl)c2)C1 (stereo not given) | 4.15 µM | 7.44 µM | – | 4.53 µM | 6.52 µM | 10.6 µM | 11.4 µM | 7.68 µM | 3.61 µM | > 22.7 µM
6 | C=C1C(=O)O[C@H]2[C@@H](O)[C@H](C)CCC/C(C)=C/CC[C@@]3(C)O[C@@H]3C[C@@H]12 | 6.16 µM | 14.5 µM | > 27.4 µM | 28.7 µM | 36.4 µM | 31.1 µM | 48.9 µM | 28.1 µM | 22.6 µM | 14.7 µM
7 | COC(=O)[C@]12CCC(=O)N1[C@H](C(=O)O)Cc1c2[nH]c2ccccc12 | > 100 µM | > 100 µM | – | > 100 µM | > 100 µM | > 100 µM | > 100 µM | > 100 µM | > 100 µM | > 100 µM
8 | Cc1ccc(N=Nc2cc(=O)[nH]c(=O)[nH]2)cc1C | 24.4 µM | 26.6 µM | 7.18 µM | 4.51 µM | 29.4 µM | 4.19 µM | – | 30.4 µM | 18.6 µM | > 100 µM
9 | CCOc1cc(C=Nc2ccc(Oc3ccc(Cl)cc3)c(Cl)c2)ccc1O | > 100 µM | 52 µM | 57.4 µM | 46.6 µM | > 100 µM | 85.7 µM | 56.4 µM | 52.9 µM | 38.8 µM | 57 µM
10 | CC(C)=CCC/C(C)=C/CCC1(C)C2COC(=O)C21 (stereo not given) | > 100 µM | > 100 µM | 46.4 µM | > 100 µM | > 100 µM | > 100 µM | > 100 µM | 91.7 µM | > 100 µM | > 100 µM
11 | COc1cc2c(cc1OCc1ccccc1)NC(=O)[C@@H]1C[C@@H](O)CN1C2=O | > 100 µM | > 100 µM | – | > 100 µM | > 100 µM | > 100 µM | > 100 µM | > 100 µM | > 100 µM | > 100 µM
12 | COc1cc(/C=C/C=C2\CC(C)C/C(=C\C=C\c3ccc(O)c(OC)c3)C2=O)ccc1O (stereo not given) | 40.8 µM | 27.3 µM | 33.8 µM | 31 µM | 42 µM | 31.1 µM | > 100 µM | 37.6 µM | > 100 µM | 91.4 µM
13 | CCCCCCCCCCCOCCC1C(C(C)OCCN2CCCC2)OC2OC(C)(C)OC21 (stereo not given) | 10.8 µM | 7.76 µM | 3.36 µM | 3.5 µM | 6.58 µM | 12.3 µM | 3.51 µM | 3.22 µM | 7.31 µM | 1.83 µM
14 | Cc1nc(-c2ccc(Cl)cc2)cn2c1nc1ccccc12 | > 100 µM | > 100 µM | > 31.6 µM | > 100 µM | > 100 µM | > 100 µM | > 100 µM | > 100 µM | > 100 µM | > 100 µM
15 | OCC1=C[C@@](COCc2ccccc2)(OCc2ccccc2)[C@@H](OCc2ccccc2)[C@@H]1OCc1ccccc1 | > 100 µM | 98.1 µM | 65.9 µM | 35.6 µM | 23.8 µM | 27.3 µM | 39.3 µM | 30.5 µM | 10.3 µM | 33.4 µM
16 | O=C(O)c1cc2c(cc1CC(Cc1ccccc1)C(=O)O)CCC2 (stereo not given) | > 100 µM | > 100 µM | > 100 µM | > 100 µM | > 100 µM | > 100 µM | > 100 µM | > 100 µM | > 100 µM | > 100 µM
17 | CCCCN=C(OC1C=CCCC1)SC (stereo not given) | > 100 µM | > 100 µM | > 100 µM | > 100 µM | > 100 µM | > 100 µM | – | > 100 µM | > 100 µM | > 100 µM
18 | CCSc1nn(-c2c3ccccc3nc3ccccc23)c(=S)s1 | > 100 µM | > 100 µM | > 100 µM | > 100 µM | > 100 µM | > 100 µM | > 100 µM | > 100 µM | > 100 µM | > 100 µM
19 | COC(=O)C[C@H]1[C@]2(C)C3=C(C)[C@H](c4ccoc4)CC3O[C@@H]2[C@@H]2OC(=O)[C@]3(C)CCC(=O)[C@@]1(C)[C@@H]23 (stereo not given in full) | > 100 µM | > 100 µM | 54.8 µM | > 100 µM | > 100 µM | > 100 µM | > 100 µM | > 100 µM | > 100 µM | 59.6 µM
20 | C=CC(=O)N1C/C(=C\c2ccc(F)cc2)C(=O)/C(=C/c2ccc(F)cc2)C1 | 0.715 µM | 1.2 µM | > 100 µM | 0.285 µM | 1.42 µM | 1.19 µM | 2.69 µM | 3.35 µM | 0.936 µM | > 100 µM
21 | Oc1cc(Br)cc2cc(Br)cnc12 | 47.4 µM | > 100 µM | 0.654 µM | > 100 µM | > 100 µM | – | – | 31.7 µM | 73 µM | 11 µM
22 | CCn1c2ccccc2c2cc(NC(=O)c3c(C)[nH]c(=O)[nH]c3=S)ccc21 | – | > 100 µM | > 100 µM | > 100 µM | > 100 µM | > 100 µM | > 100 µM | > 100 µM | > 100 µM | > 100 µM
